Like-named read-outs stand apart in the source and are kept apart here.
Key:
[1] = system: P. aeruginosa strains PAO1 and PA14; assay: Inhibitory activity against P. aeruginosa, strain not separated in text; type: cell-based, Pseudomonas aeruginosa; conditions: for inhibitory activity against P. aeruginosa, in words (SAR): compared with promysalin; for IC50: Pseudomonas aeruginosa, PAO1 and PA14, read-out: IC50 / inactive up to concentration
Protocol: (§1) P. aeruginosa PA01, and PA14 were gifts from Prof. George O'Toole (Dartmouth Medical School). Bacterial cultures were grown from freezer stocks overnight (16-24 hr) with shaking at 37° C. in Tryptic Soy Broth (TSB) media (10 mL). Growth curves were obtained for PA01 and PA14 to determine the OD of each strain in exponential growth; OD readings at 595 nm were taken every 10 minutes for 6 hours in a plate reader at 37° C. with shaking and repeated six times. (see FIGS. 6A and 6B)
(§2) Compounds were serially diluted in sterile DI water from a stock solution (1 mM in 10% DMSO/90% H2O) to yield twenty-four test concentrations. Overnight cultures were diluted 1:100 in 5 mL fresh media and grown with shaking at 37° C. to an OD of 0.32 (see growth curves). Bacteria were diluted to a concentration of 0.004 using the following equation: (x μL O/N)(OD reading)=(0.004)(volume needed) and 100 μL was inoculated into each well of a flat-bottom 96-well plate (Corning 3370) containing 100 μL of compound solution. Plates were incubated statically at 37° C. for 24 hours, upon which time the OD at 595 nm was measured using a plate reader. IC50 values were calculated by fitting the OD readings vs. concentration with a 4 parameter logistic model. Controls were prepared by serially diluting a 10% DMSO/90% H2O the same as the compound stock solution. Compounds were tested in triplicate from separate O/N cultures and results averaged.
With a library of sixteen analogs in hand, all of the compounds were evaluated for inhibitory activity against P. aeruginosa strains PAO1 and PA14. […] The inhibition data supported our initial hypothesis that the conformation of promysalin is exquisitely linked to its inhibition of PA. Of our modifications to the proline structure, fluorination (9)—being the smallest steric perturbation, was the only compound with equipotency to that of promysalin.

[2] = system: P. aeruginosa PA14; assay: IC50 assay (OD595, 24 h) against PA14; type: cell-based, Pseudomonas aeruginosa; conditions: for IC50: Pseudomonas aeruginosa
Protocol: as §1, §2
Compounds were serially diluted in sterile DI water from a stock solution (10% DMSO/H2O) yielding 24 test concentrations. Bacteria were diluted to a final concentration of 0.004 from regrown overnight culture according to the following equation: (xμL bacterial culture)(OD reading)=(0.004)(total volume needed) and 100 μL was inoculated into each well of a flat-bottom 96-well plate (Corning 3370) containing 100 μL of compound solution. Plates were incubated statically at 37° C. for 24 hours upon which time OD at 595 nm was measured using a plate reader (Spectra Max 190). IC50 values were calculated using OD values and concentrations with a 4-parameter logistic model. Control experiments used a 10% DMSO/H2O stock serially diluted to the same 24 concentrations. Compounds were tested in triplicate from three independent overnight cultures.

[3] = system: P. aeruginosa PA01; assay: IC50 assay (OD595, 24 h) against PA01; type: cell-based; conditions: Pseudomonas aeruginosa
Protocol: P. aeruginosa PA01, and PA14 were gifts from Prof. George O'Toole (Dartmouth Medical School). Bacterial cultures were grown from freezer stocks overnight (16-24 hr) with shaking at 37° C. in Tryptic Soy Broth (TSB) media (10 mL). Growth curves were obtained for PA01 and PA14 to determine the OD of each strain in exponential growth; OD readings at 595 nm were taken every 10 minutes for 6 hours in a plate reader at 37° C. with shaking and repeated six times. (see FIGS. 6A and 6B) Compounds were serially diluted in sterile DI water from a stock solution (1 mM in 10% DMSO/90% H2O) to yield twenty-four test concentrations. Overnight cultures were diluted 1:100 in 5 mL fresh media and grown with shaking at 37° C. to an OD of 0.32 (see growth curves). Bacteria were diluted to a concentration of 0.004 using the following equation: (x μL O/N)(OD reading)=(0.004)(volume needed) and 100 μL was inoculated into each well of a flat-bottom 96-well plate (Corning 3370) containing 100 μL of compound solution. Plates were incubated statically at 37° C. for 24 hours, upon which time the OD at 595 nm was measured using a plate reader. IC50 values were calculated by fitting the OD readings vs. concentration with a 4 parameter logistic model. Controls were prepared by serially diluting a 10% DMSO/90% H2O the same as the compound stock solution. Compounds were tested in triplicate from separate O/N cultures and results averaged.

[4] = average of EXPT 1-3, read-out: IC50 PA01 AVG
[5] = averages of three independent experiments, read-out: IC50 PA01
[6] = single trial 1, read-out: IC50 PA01 EXPT 1
[7] = single trial 2, read-out: IC50 PA01 EXPT 2
[8] = single trial 3, read-out: IC50 PA01 EXPT 3
[9] = average of EXPT 1-3, read-out: IC50 PA14 AVG
[10] = averages of three independent experiments, read-out: IC50 PA14
[11] = single trial 1, read-out: IC50 PA14 EXPT 1
[12] = single trial 2, read-out: IC50 PA14 EXPT 2
[13] = single trial 3, read-out: IC50 PA14 EXPT 3

CCCCCC[C@H](CCCCC[C@@H](O)C(N)=O)OC(=O)[C@@H]1CC[C@@H]2Oc3ccccc3C(=O)N21 (single isomer, unassigned) [2a]
inhibitory activity against P. aeruginosa, in words (SAR) [1]: no biological activity

CCCCCC[C@H](CCCCC[C@@H](O)C(N)=O)OC(=O)[C@@H]1CC[C@H]2Oc3ccccc3C(=O)N21 (single isomer, unassigned) [2b]
inhibitory activity against P. aeruginosa, in words (SAR) [1]: no biological activity

C#CCCC1(CCNC(=O)[C@H](O)CCCCC[C@@H](CCCCCC)OC(=O)[C@@H]2CC=CN2C(=O)c2ccccc2O)N=N1 [(−)-2, (7R,13R)-14-((2-(3-(but-3-yn-1-yl)-3H-diazirin-3-yl)ethyl)amino)-13-hydroxy-14-oxotetradecan-7-yl (S)-1-(2-hydroxybenzoyl)-2,3-dihydro-1H-pyrrole-2-carboxylate]
less active than promysalin [1]: ~10 ×
IC50 ([2]; read-out: IC50 in PA14): 1.7 µM

C#CCNC(=O)[C@H](O)CCCCC[C@@H](CCCCCC)OC(=O)[C@@H]1CC=CN1C(=O)c1ccccc1O [(−)-S4, (7R,13R)-13-hydroxy-14-oxo-14-(prop-2-yn-1-ylamino)tetradecan-7-yl (S)-1-(2-hydroxybenzoyl)-2,3-dihydro-1H-pyrrole-2-carboxylate]
activity relative to the natural product [2]: three-fold less active
IC50 ([2]; preliminary screening for probe design, read-out: IC50 in PA14): 0.218 µM

C#CCCC1(CCNC(=O)[C@H](O)CCCCC[C@@H](CCCCCC)OC(=O)[C@@H]2CC=CN2C(=O)c2ccccc2)N=N1 [(−)-S12, (7R,13R)-14-((2-(3-(but-3-yn-1-yl)-3H-diazirin-3-yl)ethyl)amino)-13-hydroxy-14-oxotetradecan-7-yl (S)-1-benzoyl-2,3-dihydro-1H-pyrrole-2-carboxylate]
inhibitory activity against P. aeruginosa, in words (SAR) [1]: inactive

CCCCCC[C@@H](O)CCCCC[C@@H](O)C(N)=O [compound 4, (2R,8R)-2,8-dihydroxytetradecanamide]
IC50 [1]: > 250 µM

COC(=O)[C@@H]1CC=CN1C(=O)c1ccccc1O [compound 5, Methyl (2S)-1-(2-hydroxybenzoyl)-2,3-dihydro-1H-pyrrole-2-carboxylate]
IC50 [1]: > 250 µM

CCCCCC[C@H](CCCCC[C@@H](O)C(N)=O)OC(=O)[C@@H]1CCCN1C(=O)c1ccccc1O [compound 6, (1R,7R)-1-carbamoyl-1-hydroxytridecan-7-yl (2S)-1-(2-hydroxybenzoyl)pyrrolidine-2-carboxylate]
IC50 [3, 4]: 111 µM
IC50 [3, 5]: 111 µM
IC50 [3, 6]: 113 µM
IC50 [3, 7]: 98.9 µM
IC50 [3, 8]: 121 µM
inhibitory activity against P. aeruginosa, in words (SAR) [1]: modest activity
IC50 [2, 9]: 28.3 µM
IC50 [2, 10]: 28 µM
IC50 [2, 11]: 24.3 µM
IC50 [2, 12]: 27.1 µM
IC50 [2, 13]: 33.7 µM

CCCCCC[C@H](CCCCC[C@@H](O)C(N)=O)OC(=O)[C@@H]1CCCCN1C(=O)c1ccccc1O [compound 7, (1R,7R)-1-carbamoyl-1-hydroxytridecan-7-yl (2S)-1-(2-hydroxybenzoyl)piperidine-2-carboxylate]
inhibitory activity against P. aeruginosa, in words (SAR) [1]: inactive

CCCCCC[C@H](CCCCC[C@@H](O)C(N)=O)OC(=O)[C@@H]1C[C@@H](O)CN1C(=O)c1ccccc1O [compound 8, (1R,7R)-1-carbamoyl-1-hydroxytridecan-7-yl (2S,4R)-4-hydroxy-1-(2-hydroxybenzoyl)pyrrolidine-2-carboxylate]
inhibitory activity against P. aeruginosa, in words (SAR) [1]: inactive

CCCCCC[C@H](CCCCC[C@@H](O)C(N)=O)OC(=O)[C@@H]1CC(F)=CN1C(=O)c1ccccc1O [compound 9, (7R,13R)-14-amino-13-hydroxy-14-oxotetradecan-7-yl (S)-4-fluoro-1-(2-hydroxybenzoyl)-2,3-dihydro-1H-pyrrole-2-carboxylate]
IC50 [3, 4]: 7.7 µM
IC50 [3, 5]: 7.7 µM
IC50 [3, 6]: 8.11 µM
IC50 [3, 7]: 8.57 µM
IC50 [3, 8]: 6.41 µM
inhibitory activity against P. aeruginosa, in words (SAR) [1]: equipotency
IC50 [2, 9]: 0.019 µM
IC50 [2, 10]: 0.019 µM
IC50 [2, 11]: 0.04 µM
IC50 [2, 12]: 0.01 µM
IC50 [2, 13]: 0.01 µM

CCCCCC[C@H](CCCCC[C@@H](O)C(N)=O)OC(=O)[C@@H]1CC(C)=CN1C(=O)c1ccccc1O [compound 10, (7R,13R)-14-amino-13-hydroxy-14-oxotetradecan-7-yl (S)-1-(2-hydroxybenzoyl)-4-methyl-2,3-dihydro-1H-pyrrole-2-carboxylate]
IC50 [3, 4]: 31.9 µM
IC50 [3, 5]: 32 µM
IC50 [3, 6]: 32.3 µM
IC50 [3, 7]: 32.5 µM
IC50 [3, 8]: 31.1 µM
inhibitory activity against P. aeruginosa, in words (SAR) [1]: slightly tolerated
IC50 [2, 9]: 11.4 µM
IC50 [2, 10]: 12 µM
IC50 [2, 11]: 10.8 µM
IC50 [2, 12]: 11.2 µM
IC50 [2, 13]: 12.2 µM

CCCCCC[C@H](CCCCC[C@@H](O)C(N)=O)OC(=O)[C@@H]1CC=CN1C(=O)c1cccc(O)c1 [compound 12, (7R,13R)-14-amino-13-hydroxy-14-oxotetradecan-7-yl (S)-1-(3-hydroxybenzoyl)-2,3-dihydro-1H-pyrrole-2-carboxylate]
inhibitory activity against P. aeruginosa, in words (SAR) [1]: largely unforgiving

CCCCCC[C@H](CCCCC[C@@H](O)C(N)=O)OC(=O)[C@@H]1CC=CN1C(=O)c1ccc(O)cc1 [compound 13, (1R,7R)-1-carbamoyl-1-hydroxytridecan-7-yl (2S)-1-(4-hydroxybenzoyl)-2,3-dihydro-1H-pyrrole-2-carboxylate]
inhibitory activity against P. aeruginosa, in words (SAR) [1]: largely unforgiving

CCCCCC[C@H](CCCCC[C@@H](O)C(N)=O)OC(=O)[C@@H]1CC=CN1C(=O)c1ccccc1 [compound 14, (1R,7R)-1-carbamoyl-1-hydroxytridecan-7-yl (2S)-1-benzoyl-2,3-dihydro-1H-pyrrole-2-carboxylate]
inhibitory activity against P. aeruginosa, in words (SAR) [1]: largely unforgiving

CCCCCC[C@H](CCCCC[C@@H](O)C(N)=O)OC(=O)[C@@H]1CC=CN1C(=O)c1c(O)cccc1OC [compound 15, (7R,13R)-14-amino-13-hydroxy-14-oxotetradecan-7-yl (S)-1-(2-hydroxy-6-methoxybenzoyl)-2,3-dihydro-1H-pyrrole-2-carboxylate]
inhibitory activity against P. aeruginosa, in words (SAR) [1]: not tolerated

CCCCCC[C@H](CCCCC[C@@H](O)C(N)=O)OC(=O)[C@@H]1CC=CN1C(=O)c1cc(OC)c(OC)c(OC)c1 [compound 16, (1R,7R)-1-carbamoyl-1-hydroxytridecan-7-yl (2S)-1-(3,4,5-trimethoxybenzoyl)-2,3-dihydro-1H-pyrrole-2-carboxylate]
inhibitory activity against P. aeruginosa, in words (SAR) [1]: not tolerated

CCCCCC[C@H](CCCCC[C@@H](O)C(N)=O)OC(=O)[C@@H]1CC=CN1C(=O)c1ccccc1[N+](=O)[O-] [compound 17, (7R,13R)-14-amino-13-hydroxy-14-oxotetradecan-7-yl (S)-1-(2-nitrobenzoyl)-2,3-dihydro-1H-pyrrole-2-carboxylate]
inhibitory activity against P. aeruginosa, in words (SAR) [1]: largely unforgiving
